Data reported in patent US7026289B2, “Method and compositions for treating hyperlipidemia and other conditions” (Societe de Conseils de Recherches et d'Applications …, priority 1997, dated 2006).
Positions of bridges follow the written chain, without caps; N, C: chain ends. Non-standard residues stand in square brackets, D forms with d. Residues, ends and D or L forms follow the SMILES beside them.

Tests used:
[1] = tested on: fatty (fa/fa) Zucker rats; test: Reduction of glycerol and triglycerides, chronic treatment in obese rats; format: in vivo, rat; details: for plasma glycerol / plasma triglycerides: 3 mg/kg s.c. twice a day, 6 days, vs saline
Description: The obese (fa/fa) Zucker and its derivative in the Zucker diabetic fatty (ZDF/Drt-fa) are excellent models of diabetes-induced dyspilidemia (Shafrir, E., Diabetes/Metabolism Rev. 8:179–208 (1992); Peterson, R. G., et al., ILAR News 32:16–19 (1990)). The animals develop progressive hypertriglyceridemia and hypercholesterolemia.
Eleven male fatty Zucker rats weighing about 450 grams were randomly divided into 2 groups and their initial body wights recorded. The animals were housed in pairs in a normal 12 hour light/dark cycle at 20–21 C and fed a standard laboratory rat diet (Beekay rat and mouse diet, Bantin & Kingman, Hull, Humberside, U.K.) overnight ad libitum.
For the group assigned to receive drug treatment, the rats received BIM-23268C at 3 mg/kg, by subcutaneous injection twice a day at 10:00 a.m. and 5:00 p.m. The other group was treated with a subcutaneous injection of 0.1 ml/100 g of saline twice a day at 10:00 a.m. and 5:00 p.m. The animals were subjected to the BIM-23268 or saline treatment for a total of six days.
On the last day of treatment (day 6), food was removed at 5:00 p.m. and the rats fasted overnight. At 9:00 a.m. the next day, the animals were subjected to a glucose challenge, given as a 0.8 gram/kg of glucose orally. Periodic 400 ul of blood samples were taken from the tail vein (Peterson, R. G., ILAR News 32:16–19 (1990)) at 60 min. and 30 min. before, and at 30, 60, 90, and 120 min. after the administration of the glucose challenge (08. gram/kg orally). Aprotinin (Traysylol, Bayer UK, Hayward's Heath, W. Sussex, U.K.) and heparin (Sigma Chemical Co., Poole, Dorset, U.K.) were added to the blood samples to a final concentration of 400 KIU/ml and 100 units/ml, respectively. Plasma fractions were prepared from these samples by centrifugation at 400×G in a microfuge, for the estimation of triglycerides and glycerol. Samples were then stored at −80° C. until assayed.
Plasma glycerol and triglycerides were determined using the Sigma Enzymatic (Tinder) calorimetric assay kit (Cat #337-B, Sigma Chemical Co., Poole, Dorset, U.K.) and measuring absorbance at 540 nm in a spectrophotometer.

hSSTR-1 = target: T1, hSSTR-1 (Homo sapiens, UniProt P30872); test: Somatostatin receptor binding assay, [125I-Tyr11] somatostatin-14, CHO-K1 membranes; details: displacement of 0.05 nM [125I-Tyr11] somatostatin-14, transfected CHO-K1 membranes
T1 construct: expressed in transfected cells
Experimental: Restriction endonucleases are available from New England Biolabs (Beverly, Mass.). […] Other mammalian expression vectors include pcDNA1/Amp (Invitrogen, Sandlesy, Calif.). The expression plasmids were introduced into the suitable bacterial host, E. Coli HB101 (Stratagene, La Jolla, Calif.) and plasmid DNAs, for transfection, were prepared on Cesium Chloride gradients.
CHO-K1 (ovary, Chinese hamster) cells were obtained from ATCC (ATCC No. CCL 61). The cells were grown and maintained in Ham's F12 media (Gibco BRL, Grand Island, N.Y.) supplemented with 10% fetal bovine serum under standard tissue culture conditions. […] DNA mediated transfection was carried out using the calcium phosphate co-precipitation method (Ausubel, F. M., et al., Current Protocols in Molecular Biology, John Wiley & Sons, 1987). The plasmid pRSV-neo (ATCC; ATCC No. 37198) was included as a selectable marker at 1/10 the concentration of the expression plasmid. CHO-K1 clonal cell lines that have stably inherited the transfected DNA were selected for growth in Ham's F12 media containing 10% fetal bovine serum and 0.5 mg/ml of G418 (Sigma). The cells were ring-cloned and expanded in the same media for analysis.
Transfected cell lines expressing the human SSTR receptors were clonally expanded in culture and used in the following SSTR binding protocol.
The resulting supernatant was decanted and discarded. […]

[2] = samples 30 and 60 min before oral glucose challenge
[3] = through the 2-hour test period after oral glucose challenge

T1 sequence (P30872 whole entry): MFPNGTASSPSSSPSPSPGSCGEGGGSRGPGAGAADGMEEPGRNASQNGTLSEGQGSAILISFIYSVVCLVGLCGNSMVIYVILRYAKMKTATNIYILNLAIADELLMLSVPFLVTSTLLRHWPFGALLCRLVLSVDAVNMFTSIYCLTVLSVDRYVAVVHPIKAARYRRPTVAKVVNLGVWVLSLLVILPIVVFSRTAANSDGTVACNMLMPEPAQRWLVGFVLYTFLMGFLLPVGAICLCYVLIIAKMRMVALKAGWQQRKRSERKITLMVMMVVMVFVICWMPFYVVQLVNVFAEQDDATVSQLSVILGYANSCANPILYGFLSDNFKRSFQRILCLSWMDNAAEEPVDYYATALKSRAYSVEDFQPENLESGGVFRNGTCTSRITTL

C[C@@H](O)[C@@H]1NC(=O)[C@H](CCCCN)NC(=O)[C@@H](Cc2c[nH]c3ccccc23)NC(=O)[C@H](Cc2ccccc2)NC(=O)[C@H](Cc2ccccc2)NC(=O)[C@@H](N)CSSC[C@@H](C(N)=O)NC(=O)[C@H](Cc2ccccc2)NC1=O [BIM-23268, H-Cys-Phe-Phe-D-Trp-Lys-Thr-Phe-Cys-NH2] (H-CFF[dW]KTFC-NH2; disulfide 1-8)
plasma glycerol [1, 2]: significantly lowered | plasma triglycerides [1, 2]: significantly lowered | plasma glycerol [1, 3]: significantly lower | plasma triglycerides [1, 3]: significantly lower | hypertriglyceridemia ([1]; 6-day treatment period at the prescribed dose (3 mg/kg s.c. twice a day)): effective in reducing hypertriglyceridemia

C[C@@H](O)[C@@H]1NC(=O)[C@H](CCCCN)NC(=O)[C@@H](Cc2c[nH]c3ccccc23)NC(=O)[C@H](Cc2ccc(O)c(I)c2)NC(=O)[C@H](Cc2ccccc2)NC(=O)[C@@H](N)CSSC[C@@H](C(N)=O)NC(=O)[C@H](Cc2ccccc2)NC1=O [BIM-23313, H-Cys-Phe-Tyr(I)-D-Trp-Lys-Thr-Phe-Cys-NH2]
Ki (hSSTR-1): 151 nM
